The text below walks through data of patent US12509424B2, “Compound and composition as PDGF receptor kinase inhibitor” (NIPPON SHINYAKU CO., LTD., priority 2019, dated 2025).

Read-outs that look alike come from different tables or passages of the source.

In one assay the target is PDGFR-β (Homo sapiens (Human), UniProt P09619). Kind of assay: PDGFR-β tyrosine kinase inhibitory action (HTRF KinEASE-TK). In kind it is biochemical. The settings on record: PDGFR-β enzyme 1 ng/μL, 30° C. for 30 minutes; read-out: PDGF-β IC50. The gist of the method: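 Recombinant PDGFR-β at 1 ng/μL final with TK substrate-3-biotin in a substrate solution containing 0.6 μM ATP; buffer 50 mM HEPES pH 7.0, 5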
Chain of PDGFR-β (P09619 33-1106): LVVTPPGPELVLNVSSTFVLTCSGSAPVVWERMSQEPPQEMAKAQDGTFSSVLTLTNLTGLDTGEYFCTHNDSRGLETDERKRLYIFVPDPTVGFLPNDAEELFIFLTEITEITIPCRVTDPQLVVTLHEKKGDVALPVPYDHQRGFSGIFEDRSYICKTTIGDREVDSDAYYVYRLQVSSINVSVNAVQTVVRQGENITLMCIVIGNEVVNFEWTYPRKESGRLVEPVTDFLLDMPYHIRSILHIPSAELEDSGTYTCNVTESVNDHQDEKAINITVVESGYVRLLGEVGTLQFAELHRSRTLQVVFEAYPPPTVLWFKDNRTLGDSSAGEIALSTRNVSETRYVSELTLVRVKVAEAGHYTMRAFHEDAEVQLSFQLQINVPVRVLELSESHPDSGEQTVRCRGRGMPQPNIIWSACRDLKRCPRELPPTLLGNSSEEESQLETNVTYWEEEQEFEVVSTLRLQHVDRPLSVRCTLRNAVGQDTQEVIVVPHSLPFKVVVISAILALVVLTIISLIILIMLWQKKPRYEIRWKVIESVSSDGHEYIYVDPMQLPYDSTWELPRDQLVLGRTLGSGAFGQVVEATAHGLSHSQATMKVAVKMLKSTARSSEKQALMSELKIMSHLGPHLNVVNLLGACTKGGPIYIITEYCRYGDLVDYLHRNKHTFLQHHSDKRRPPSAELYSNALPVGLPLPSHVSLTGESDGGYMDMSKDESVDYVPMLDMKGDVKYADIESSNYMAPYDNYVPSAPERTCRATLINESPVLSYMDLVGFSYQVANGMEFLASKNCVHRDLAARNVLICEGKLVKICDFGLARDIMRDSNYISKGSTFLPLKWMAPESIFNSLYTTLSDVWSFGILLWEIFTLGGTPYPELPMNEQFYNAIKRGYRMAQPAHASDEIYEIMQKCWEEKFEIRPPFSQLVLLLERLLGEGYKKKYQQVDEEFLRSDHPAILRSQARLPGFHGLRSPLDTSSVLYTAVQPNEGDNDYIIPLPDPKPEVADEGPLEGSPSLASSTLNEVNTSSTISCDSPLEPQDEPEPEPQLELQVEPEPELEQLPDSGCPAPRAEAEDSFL
Background: TR-FRET usually uses a lanthanide donor and a delayed reading to cut background.

For assay [1], the target named is TEL-PDGFRβ fusion gene transfected cells (Ba/F3). Kind of assay: Suppression of proliferation of TEL-PDGFRβ fusion gene transfected Ba/F3 cells. In kind it is cell-based, human. The settings on record: TEL-PDGFRβ expressing Ba/F3 cells, 72 hours, final concentration 0.1 to 10,000 nM; read-out: PDGFR β/BaF3 proliferation inhibition (IC50). The source says:
2. Preparation of Test Substance
4. Analysis of Measurement Results

Assay [2] deals with pulmonary arterial smooth muscle cells. As to the kind of experiment: Suppression of proliferation of pulmonary arterial smooth muscle cells (PDGF-BB stimulation, BrdU). In kind it is cell-based. The settings on record: PASMC, read-out: Human normal PASMC proliferation suppression (PDGF stimulation_IC50). The gist of the method: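 Test compound (final 3 to 10,000 nM) was added together with BrdU and PDGF-BB (final 10 ng/mL) to healthy human pulmonary artery smooth muscle cells held a day in 0.1% FBS. Proliferation was read after 1 day as anti-BrdU-detected BrdU incorporation.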

The target of assay [3] is TEL-KIT fusion gene transfected cells (Ba/F3). Kind of assay: Suppression of proliferation of TEL-KIT fusion gene transfected Ba/F3 cells.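 Also: viable cells quantified via formazan from tetrazolium reduction, inhibition scaled with 0.1% DMSO control as 0% and medium-only blank as 100%, IC50 from two-parameter logistic fit.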 To be noted: read-out: KIT/BaF3 proliferation inhibition (IC50); TEL-KIT expressing Ba/F3 cells, 72 hours, final concentration 0.1 to 10,000 nM.
Chain of TEL-KIT fusion gene transfected cells (Ba/F3) (P10721 26-976 limits assumed, change not shown): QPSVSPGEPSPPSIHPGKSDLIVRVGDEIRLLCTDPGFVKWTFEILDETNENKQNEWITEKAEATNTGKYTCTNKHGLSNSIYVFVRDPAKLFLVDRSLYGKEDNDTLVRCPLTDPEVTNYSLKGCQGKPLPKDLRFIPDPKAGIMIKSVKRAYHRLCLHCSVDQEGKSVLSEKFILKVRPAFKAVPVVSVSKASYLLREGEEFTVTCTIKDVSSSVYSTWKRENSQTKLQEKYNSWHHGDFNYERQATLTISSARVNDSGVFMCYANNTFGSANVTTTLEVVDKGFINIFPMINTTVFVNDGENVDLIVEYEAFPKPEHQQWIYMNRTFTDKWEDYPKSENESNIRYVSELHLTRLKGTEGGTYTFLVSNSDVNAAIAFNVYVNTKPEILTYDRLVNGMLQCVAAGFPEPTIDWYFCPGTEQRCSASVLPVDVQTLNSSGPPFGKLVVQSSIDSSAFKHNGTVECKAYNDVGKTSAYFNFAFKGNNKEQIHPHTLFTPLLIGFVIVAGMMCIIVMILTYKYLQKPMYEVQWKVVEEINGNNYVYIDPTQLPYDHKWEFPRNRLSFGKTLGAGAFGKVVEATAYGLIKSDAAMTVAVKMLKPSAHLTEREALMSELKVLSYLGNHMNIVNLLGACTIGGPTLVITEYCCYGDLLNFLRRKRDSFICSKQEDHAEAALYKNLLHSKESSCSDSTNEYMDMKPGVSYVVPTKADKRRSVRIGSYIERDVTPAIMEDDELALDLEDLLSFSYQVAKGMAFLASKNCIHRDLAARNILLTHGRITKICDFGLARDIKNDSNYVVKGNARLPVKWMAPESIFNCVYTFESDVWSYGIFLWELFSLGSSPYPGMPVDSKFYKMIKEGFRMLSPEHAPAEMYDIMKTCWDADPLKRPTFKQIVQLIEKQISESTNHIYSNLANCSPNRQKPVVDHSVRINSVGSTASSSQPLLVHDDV
The mark [4] stands for this setting: 24 h, healthy human derived pulmonary arterial smooth muscle cells, human PDGF-BB 10 ng/mL stimulation, BrdU uptake after 1 day, test substance final concentration 3 to 10,000 nM.
Where [5] appears, read: human PDGF-BB 10 ng/mL, BrdU uptake, final concentration 3 to 10,000 nM.

Chain of TEL-PDGFRβ fusion gene transfected cells (Ba/F3) (P09619 33-1106 limits assumed, change not shown): as the sequence (P09619 33-1106) above

As for `Cc1ccc(C(=O)N[C@H]2CCCC[C@@H]2O)cc1N[C@@H](C)c1cncc(-c2ccccc2)c1` [Example 84, N-[(1S,2S)-2-hydroxycyclohexyl]-4-methyl-3-{[(1S)-1-(5-phenylpyridin-3-yl)ethyl]amino}benzamide], the IC50 on PDGFR-β was 19 nM; in assay [1], 50 nM; in assay [2] (setting [4]), 160 nM; in assay [3], 500 nM.

With `Cc1c(F)cc(C(=O)N[C@H]2CCCC[C@@H]2O)cc1NC(=O)c1cnc(CC2CC2)s1` [Example 48, 2-(cyclopropylmethyl)-N-(3-fluoro-5-{[(1S,2S)-2-hydroxycyclohexyl]carbamoyl}-2-methylphenyl)-1,3-thiazole-5-carboxamide], the IC50 on PDGFR-β stood at 120 nM; in assay [1], 16 nM; in assay [2] (setting [4]), 310 nM; in assay [3], 650 nM.

In the case of `Cc1ccc(C(=O)N[C@H]2CCCC[C@@H]2O)cc1NCc1cncc(-c2ncccn2)c1` [Example 95, N-[(1S,2S)-2-hydroxycyclohexyl]-4-methyl-3-({[5-(pyrimidin-2-yl)pyridin-3-yl]methyl}amino)benzamide], the IC50 at PDGFR-β is 120 nM; in assay [1], 5.7 nM; in assay [2] (setting [4]), 96 nM; in assay [3] it was 1000 nM.

With `Cc1ccc(C(=O)N[C@H]2CCCC[C@@H]2O)cc1NCc1cncc(-c2ccc(C(C)(C)N)cc2)c1` [Example 98, 3-[({5-[4-(2-aminopropan-2-yl)phenyl]pyridin-3-yl}methyl)amino]-N-[(1S,2S)-2-hydroxycyclohexyl]-4-methylbenzamide], the IC50 on PDGFR-β is 140 nM; in assay [1], 40 nM; in assay [2] (setting [4]) it was 160 nM; in assay [3], over 10000 nM.

In the case of `Cc1ccc(C(=O)N[C@@H](CO)[C@@H](O)c2ccccc2)cc1CNc1cncc(-c2ccccc2)n1` [Example 156, N-[(1S,2S)-1,3-dihydroxy-1-phenylpropan-2-yl]-4-methyl-3-{[(6-phenylpyrazin-2-yl)amino]methyl}benzamide], the IC50 at PDGFR-β is 25 nM; in assay [1] it was 22 nM; in assay [2] (setting [4]) it was 79 nM; in assay [3] it was over 10000 nM.

For `Cc1c(F)cc(C(=O)N[C@H]2CCCC[C@@H]2O)cc1NC(=O)c1cncc(OCC2CC2)c1` [Example 46, 5-(cyclopropylmethoxy)-N-(3-fluoro-5-{[(1S,2S)-2-hydroxycyclohexyl]carbamoyl}-2-methylphenyl)pyridine-3-carboxamide], the IC50 was determined as 77 nM on PDGFR-β, 17 nM in assay [1], 370 nM in assay [2] (setting [4]) and 410 nM in assay [3].

For `Cc1ccc(C(=O)N[C@H]2CCCC[C@@H]2O)cc1CNc1cncc(-c2cccnc2)c1` [Example 146, 3-{[([3,3′-bipyridin]-5-yl)amino]methyl}-N-[(1S,2S)-2-hydroxycyclohexyl]-4-methylbenzamide], the IC50 on PDGFR-β turned out to be 210 nM; in assay [1], 22 nM; in assay [2] (setting [4]) it was 44 nM; in assay [3] it was 730 nM.

For `Cc1ccc(C(=O)N[C@H]2CCCC[C@@H]2O)cc1N[C@@H](C)c1cncc(-c2ccncc2)c1` [Example 87, 3-{[(1S)-1-([3,4′-bipyridin]-5-yl)ethyl]amino}-N-[(1S,2S)-2-hydroxycyclohexyl]-4-methylbenzamide], the IC50 at PDGFR-β came to 250 nM; in assay [1], 27 nM; in assay [2] (setting [4]) it was 350 nM; in assay [3], 9900 nM.

`Cc1ccc(C(=O)N[C@@H]2CCCC[C@H]2O)cc1CNc1cncc(-c2ncccn2)c1` [Example 149, N-[(1R,2R)-2-hydroxycyclohexyl]-4-methyl-3-({[5-(pyrimidin-2-yl)pyridin-3-yl]amino}methyl)benzamide]: the IC50 at PDGFR-β was 220 nM; in assay [1] it was 58 nM; in assay [2] (setting [4]), 150 nM; in assay [3], 670 nM.

Take `Cc1ccc(C(=O)N[C@H]2CCCC[C@@H]2O)cc1NC(=O)c1cncc(-c2c(F)cccc2F)c1` [Example 37, 5-(2,6-difluorophenyl)-N-(5-{[(1S,2S)-2-hydroxycyclohexyl]carbamoyl}-2-methylphenyl)pyridine-3-carboxamide]: the IC50 worked out at 33 nM on PDGFR-β, 5.1 nM in assay [1], 46 nM in assay [2] (setting [4]) and 470 nM in assay [3].

As to `Cc1ccc(C(=O)N[C@H]2CCCC[C@@H]2O)cc1C#Cc1cncc(C2CC2)c1` [Example 67, 3-[(5-cyclopropylpyridin-3-yl)ethynyl]-N-[(1S,2S)-2-hydroxycyclohexyl]-4-methylbenzamide], the IC50 on PDGFR-β amounted to 43 nM; in assay [1] it was 5.2 nM; in assay [2] (setting [4]) it was 120 nM; in assay [3] it was 300 nM.

Take `Cc1ccc(C(=O)N[C@H]2CCCC[C@@H]2O)cc1Nc1ccnc(-c2cncc3ccccc23)n1` [Example 79, N-[(1S,2S)-2-hydroxycyclohexyl]-3-{[2-(isoquinolin-4-yl)pyrimidin-4-yl]amino}-4-methylbenzamide]: the IC50 at PDGFR-β came to 120 nM; in assay [1], 46 nM; in assay [2] (setting [4]), 170 nM; in assay [3], 2000 nM.

`Cc1ccc(C(=O)N[C@H]2CCCC[C@@H]2O)cc1NCc1cnc2ccsc2c1` [Example 108, N-[(1S,2S)-2-hydroxycyclohexyl]-4-methyl-3-{[(thieno[3,2-b]pyridin-6-yl)methyl]amino}benzamide]: the IC50 at PDGFR-β was determined as 51 nM; in assay [1] it was 2.3 nM; in assay [2] (setting [4]), 85 nM; in assay [3], 300 nM.

With `Cc1ccc(C(=O)N[C@H]2CCCC[C@@H]2O)cc1NC(=O)c1cncc(-c2cc(F)cc(F)c2)c1` [Example 32, 5-(3,5-difluorophenyl)-N-(5-{[(1S,2S)-2-hydroxycyclohexyl]carbamoyl}-2-methylphenyl)pyridine-3-carboxamide], the IC50 stood at 47 nM on PDGFR-β, 17 nM in assay [1], 190 nM in assay [2] (setting [4]) and 920 nM in assay [3].

`Cc1ccc(C(=O)N[C@H]2CCCC[C@@H]2O)cc1C#Cc1cncc(C2CC2)n1` [Example 68, 3-[(6-cyclopropylpyrazin-2-yl)ethynyl]-N-[(1S,2S)-2-hydroxycyclohexyl]-4-methylbenzamide]: the IC50 on PDGFR-β was found to be 80 nM; in assay [1], 16 nM; in assay [2] (setting [4]), 72 nM; in assay [3] it was 2000 nM.

Turning to `Cc1ccc(C(=O)N[C@H]2CCCC[C@@H]2O)cc1NC(=O)c1cncc(-c2ccc(C(F)(F)F)cc2)c1` [Example 21, N-(5-{[(1S,2S)-2-hydroxycyclohexyl]carbamoyl}-2-methylphenyl)-5-[4-(trifluoromethyl)phenyl]pyridine-3-carboxamide], the IC50 came to 73 nM on PDGFR-β, 60 nM in assay [1], 140 nM in assay [2] (setting [5]) and 2000 nM in assay [3].

In the case of `Cc1ccc(C(=O)N[C@H]2CCCC[C@@H]2O)cc1NCc1cncc(-c2ccc(N)cc2)c1` [Example 99, 3-({[5-(4-aminophenyl)pyridin-3-yl]methyl}amino)-N-[(1S,2S)-2-hydroxycyclohexyl]-4-methylbenzamide], the IC50 at PDGFR-β came to 13 nM; in assay [1], 0.5 nM; in assay [2] (setting [4]), 27 nM; in assay [3] it was 480 nM.

Turning to `Cc1ccc(C(=O)N[C@H]2CCCC[C@@H]2O)cc1NC(=O)c1cnc(NC(C)C)s1` [Example 27, N-(5-{[(1S,2S)-2-hydroxycyclohexyl]carbamoyl}-2-methylphenyl)-2-[(propan-2-yl)amino]-1,3-thiazole-5-carboxamide], the IC50 at PDGFR-β came to 8.3 nM; in assay [1], 8.7 nM; in assay [2] (setting [5]) it was 70 nM; in assay [3] it was 1000 nM.

`Cc1c(F)cc(C(=O)N[C@H]2CCCC[C@@H]2O)cc1NCc1cncc(-c2ncccn2)c1` [Example 106, 3-fluoro-N-[(1S,2S)-2-hydroxycyclohexyl]-4-methyl-5-({[5-(pyrimidin-2-yl)pyridin-3-yl]methyl}amino)benzamide]: the IC50 was determined as 67 nM on PDGFR-β, 2.1 nM in assay [1], 140 nM in assay [2] (setting [4]) and 1300 nM in assay [3].

As for `Cc1ccc(C(=O)N[C@H]2CCCC[C@@H]2O)cc1CNc1cncc(-c2ncccn2)c1` [Example 147, N-[(1S,2S)-2-hydroxycyclohexyl]-4-methyl-3-({[5-(pyrimidin-2-yl)pyridin-3-yl]amino}methyl)benzamide], the IC50 at PDGFR-β is 24 nM; in assay [1], 5.6 nM; in assay [2] (setting [4]) it was 52 nM; in assay [3], 100 nM.

Take `Cc1ccc(C(=O)N[C@H]2CCCC[C@@H]2O)cc1CNc1cncc(-c2ccccn2)c1` [Example 148, 3-{[([2,3′-bipyridin]-5′-yl)amino]methyl}-N-[(1S,2S)-2-hydroxycyclohexyl]-4-methylbenzamide]: the IC50 amounted to 16 nM at PDGFR-β, 2.4 nM in assay [1], 110 nM in assay [2] (setting [4]) and 170 nM in assay [3].
